Where two headings read alike, the source gives them in different places.
Columns and labels:
[1] = tested on: MDA-MB-435S.luc cells; format: cell-based, human
From the text: This example describes screening for cell toxicity (IC50) and hemolytic activity using a human breast cancer cell line.
The human melanoma cell line MDA-MB-435S.luc, which over expresses chorionic gonadotrophin (CG) and luteinizing hormone-releasing hormone (LHRH) receptors, was used to screen at passage numbers 248-252. The MDA-MB-435S.luc cell line was constructed from the MDA-MB-435S cell line obtained from the American Type Cell Culture Collection by stable transfection with the plasmid PRC/CMV-luc containing the Photinus pyralis luciferase gene and an […] resistance gene by lipofection. The stably transfected cell line was selected using G418 and the clones with the highest expression for the luciferase gene were tested for their LH and LHRH receptor expression.
(§1) MDA-MB-435S.luc cells were grown in Leibovitz's L 15 medium, 10% fetal bovine serum, 0.01 mg/ml bovine insulin, 100 IU/ml penicillin, 100 microg/ml streptomycin. The cells were cultured in tight closed flasks. The incubations were conducted using 96 well plates at 10,000 cells per well. Cells were typically seeded into 96 well plates and media was replaced after 48 hours of incubation. Each assay was conducted at increasing concentrations of 0, 0.001, 0.01, 0.05, 0.1, 0.5, 1, 2, 5, 10 and 100 micromolar doses of lytic peptide-binding domain conjugate. Each lytic peptide-binding domain conjugate provided in lyophilized form and was freshly dissolved in saline and added to cells. The duration of incubation was typically 24 h, and cell viability assays were conducted using formazan conversion assays (MTT assay). Controls contained saline or 0.1% triton as reference for 0 and 100% cell death, respectively.
Data were processed and analyzed using Graph Pad Prizm 4™ software (Graph Pad Prizm, Inc). Statistical analysis for significance was determined by a two-tailed Student's T-test. Each study was conducted to achieve an N of at least 8.

[2] = tested on: 2C12; assay: Cytotoxicity in 2C12 murine ovarian cancer cells (24 h); format: cell-based; conditions: 2C12, 24 h; read-out: In vitro activity (IC50)
Method: Murine ovarian cancer cell lines (ID8, IG10, IF5, and 2Cl2) were grown in RPMI 1640 media with 10% Fetal Bovine Serum. Cells were typically seeded (3000 cells per well) into 96 well plates and media was replaced after 48 hours of incubation. […] Phor18-LHRH was provided in lyophilized form was dissolved in saline and added to cells. The duration of incubation was 24 h at 37° C. Cell viability was assessed after 24 hours using a luminometric assays (Promega, CellTiter-0Glo 2.0, G9243). Controls contained saline or 0.1% triton as reference for 0 and 100% cell death, respectively.
Data were processed and analyzed using GraphPad Prism version 7.00 for Windows (GraphPad Software, San Diego California). Statistical analysis for significance was determined by a two-tailed Student's T-test. Each study was conducted to achieve an […] of at least 6.
In vitro activities were expressed as IC50 values for each cell line, time point and compound tested that were calculated using the Hill equation (Graph Pad Prizm software).

[3] = tested on: immune cells in ascites; assay: Immune cell profiling (FACS) of ID8 ascites; format: in vivo, C57BL/6 mice
Method: Immune Profiling Assay—Immunophenotypic analyses of splenocytes and single cell suspensions from tumors were assessed by flow cytometry. Abs to stain for MDSCs were CD11b-APC (clone M1/70; BD Biosciences), Ly6G-FITC (clone 1A8; BD Biosciences) and Ly6C-PE (clone AL-21; BD Biosciences). For T-cell activation markers, cells were stained with Ab specific for CD4-PE-Cy7 (clone RM4-5; BD Biosciences), CD8-PE-Cy7 (clone 53-6.7; BD Biosciences), CD62L-PE (clone MEL-14; BD Biosciences) and CD44-FITC (clone IM7; Biolegend). Cells were incubated on ice for 30 min, washed and fixed in phosphate buffered saline (PBS) containing 1% formalin for flow cytometric analysis on an LSRII flow cytometer (BD Biosciences).
Immune cell profiling was conducted on ascites (N=3) and tumor tissue (N=3) by processing the samples by the following method and analyzed through Fluorescent Activated Cell Sorting (FACS), see Table 8. Cells were incubated for 30 minutes on ice, washed and fixed in phosphate buffered saline containing 1% formalin for flow cytometric analysis on an LSRII flow cytometer.

[4] = tested on: IG10 murine ovarian carcinoma; assay: Orthotopic IG10 murine ovarian carcinoma syngeneic model; format: in vivo, C57BL/6 mice
Method: C57BL/6 female mice were injected orthotopically with luciferase labeled IG10 murine ovarian cancer cell line (1x10^6 cells). Mice were monitored for tumor take using a luminescent imaging system. […] Each treatment and control group consisted of 10 mice. At necropsy on day 28, ascites fluids were removed and measured, and tumors were removed and weighed.
Significance between treatment groups was assessed using Wilcoxon signed Rank test analysis and ANOVA.

[5] = tested on: MCF-7 xenograft; assay: MCF-7 breast cancer xenograft; format: in vivo, nude mice; conditions: MCF-7, 2 × 3 wk, 19 d
Method: In vivo efficacy studies were conducted as monotherapy, or a combination therapy with standard of care treatments in nude mice bearing human melanoma xenografts; MDA-MB-435S.luc (s.c.), human breast cancer xenografts MCF-7 (estrogen receptor alpha positive), human ovarian cancer xenografts; OVCAR-3, (s.c.), human prostate cancer xenografts; PC-3 (androgen receptor negative).
Mice were sacrificed one week after the last injection and blood collected for chemistry panel, tumor weights and body weights were recorded. Part of the tumors were fixed in PBS buffered 10% formalin for histological evaluation.

[6] = tested on: LNCaP; assay: Cytotoxicity in LNCaP prostate cancer cells; format: cell-based; conditions: LNCaP prostate cancer cell line; read-out: IC50 in Human Cancer Cell Lines
Method: as §1
To ascertain the IC50 of various fusion constructs on different human cancer cell lines compared to cisplatinum, IC50 of fusion constructs were evaluated as in Table 3.

[7] = MDA-MB-435S.luc cells, 24 h, MTT, read-out: IC50

“KFAKFAKKFAKFAKKFAK [Phor18, reference compound]” was tested, and the IC50 [1, 7] was 2060 ± 500 nM.
For “KFAKFAKKFAKFAKKFAKQHWSYGLRPG [Phor18-LHRH]”, the IC50 [2] was 1020 nM, the “increase of CD8+ T/Treg ratio” value [3] was 7 fold and the “Monocytic myeloid suppressor cells (mMDSC)” value ([3]; % of CD45+ cells, controls 0.62±0.08%) was 0.21±0.01%. For the same sequence, the “CD8+ T cells” value ([3]; % of CD45+ cells, controls 1.9±0.3%) was 8.9±2.4%, the B cells ([3]; % of CD45+ cells, controls 9.8±1.8%) was 1.5±0.14% and the “Natural killer (NK) cells” value ([3]; % of CD45+ cells, controls 10.3±0.8%) was 10.2±0.08%. For the same sequence, the “Dendritic cells (DC)” value ([3]; % of CD45+ cells, controls 18.5±1.1%) was 15.1±0.2%, the Macrophages ([3]; % of CD45+ cells, controls 23.8±5.1%) was 25.6±0.7% and the “CD45+ cell fraction of life cells” value ([3]; Mean±SEM, controls 10.5±1.8%) was 15.6±2.1%. The “ratio of CD8+ T cells to regulatory T cells” value ([3]; controls 2.6±0.6) was 17.32±4.1, the “relative reduction of ascites volumes” value [4] was 60.2% and the “tumor weights at necropsy” value ([4]; Mean±SEM, N=10, controls 1.04±0.09 g) was 0.45 ± 0.08 g. For the same sequence, the ascites volumes ([4]; Mean±SEM, N=10, vehicle 9.06±1.3 ml) was 3.6 ± 0.7 mL, the “Median Tumor Weight vs Saline P < 0.05 (dose, growth delay)” value [5] was 0.02 mg/kg and the “Increased in vitro activity fold” value ([1]; IC50 of 33 (Phor21-βCG-ala, 2.31 μM)/IC50 peptide, MDA-MB-435S.luc) was 2.65 fold. The IC50 [1, 7] was 870 ± 110 nM, the IC50 ([1]; MDA-MB-435S.luc cells, places that print μm (Table 2: lytic peptide row + hinge column + ligand section), read-out: IC50) was 870 nM and the IC50 ([1]; MDA-MB-435S.luc melanoma cell line, read-out: IC50 in Human Cancer Cell Lines) was 860 ± 160 nM. It also gave an IC50 [6] of 1550 ± 80 nM.

— patent publication US20240228542A1, “LYTIC DOMAIN FUSION CONSTRUCTS, CHECKPOINT INHIBITORS, AND METHODS OF MAKING AND USING SAME” (A28 Therapeutics Inc., priority 2020, published 2024)
